Values joined by “and” are separate entries in the source; they are usually repeats but may differ in a detail not shown here. Equal entries are not always repeated.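 Values below derive from 48-hour exposures of cells grown in 96-well plates, with endpoints linearly interpolated between the two concentrations bracketing the appropriate inhibition level. Here, GI50 denotes the concentration required for 50% inhibition of growth.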 Active and inactive are the calls of the source. Cut-off read from the data, not from the text of the source: active = GI50 up to about 1.1 µM and inactive = higher.
Experiments:
Test in all cases: DTP human tumour cell line panel, 48 h
HL-60 = test system: HL-60
NCI-H460 = test system: NCI-H460
Hs-578T = test system: Hs-578T
LOX IMVI = test system: LOX IMVI
NCI-H522 = test system: NCI-H522
SNB-75 = test system: SNB-75
KM12 = test system: KM12
HCT-15 = test system: HCT-15
RPMI-8226 = test system: RPMI-8226
SF-268 = test system: SF-268
UACC-257 = test system: UACC-257
M14 = test system: M14
SF-539 = test system: SF-539
HOP-92 = test system: HOP-92
EKVX = test system: EKVX
DU-145 = test system: DU-145
SK-MEL-5 = test system: SK-MEL-5
NCI/ADR-RES = test system: NCI/ADR-RES
SK-MEL-2 = test system: SK-MEL-2
T47D = test system: T47D
NCI-H23 = test system: NCI-H23
UACC-62 = test system: UACC-62
HT-29 = test system: HT-29
K562 = test system: K562
COLO 205 = test system: COLO 205
OVCAR-8 = test system: OVCAR-8
OVCAR-5 = test system: OVCAR-5
MCF7 = test system: MCF7
RXF 393 = test system: RXF 393
HCT-116 = test system: HCT-116
TK-10 = test system: TK-10
SF-295 = test system: SF-295
MDA-N = test system: MDA-N
Malme-3M = test system: Malme-3M
NCI-H226 = test system: NCI-H226
HCC 2998 = test system: HCC 2998
UO-31 = test system: UO-31
SN12C = test system: SN12C
IGROV-1 = test system: IGROV-1
A498 = test system: A498
MDA-MB-231 = test system: MDA-MB-231
SR = test system: SR
CCRF-CEM = test system: CCRF-CEM
OVCAR-4 = test system: OVCAR-4
SNB-19 = test system: SNB-19
SW-620 = test system: SW-620
MOLT-4 = test system: MOLT-4
MDA-MB-435 = test system: MDA-MB-435
U-251 = test system: U-251
PC-3 = test system: PC-3
786-0 = test system: 786-0
SK-MEL-28 = test system: SK-MEL-28
ACHN = test system: ACHN
CAKI-1 = test system: CAKI-1
A549 = test system: A549

CC(=O)OCC1OC(n2c(-c3ccc(C)cc3)cc(-c3ccco3)c(C#N)c2=O)C(OC(C)=O)C(OC(C)=O)C1OC(C)=O (centres undefined)
GI50 (HL-60): 2.72 µM (inactive)
GI50 (NCI-H460): 2.59 µM (inactive)

COC(=O)C1C(O)CCC2CN3CCc4c([nH]c5ccccc45)C3CC21 (centres undefined)
GI50 (Hs-578T): > 100 µM (inactive)
GI50 (LOX IMVI): > 100 µM (inactive)
GI50 (NCI-H522): > 100 µM (inactive)
GI50 (SNB-75): 56 µM (inactive)
GI50 (KM12): > 95.1 µM (inactive)
GI50 (HCT-15): > 67.3 µM
GI50 (RPMI-8226): > 100 µM (inactive)
GI50 (SF-268): > 78 µM (inactive)
GI50 (UACC-257): > 87.1 µM (inactive)
GI50 (M14): > 100 µM (inactive)
GI50 (SF-539): > 100 µM (inactive)
GI50 (HOP-92): > 51.4 µM (inactive)
GI50 (EKVX): > 91 µM (inactive)
GI50 (DU-145): > 100 µM (inactive) and > 87.7 µM (inactive)
GI50 (SK-MEL-5): > 100 µM (inactive)
GI50 (NCI/ADR-RES): > 100 µM (inactive)
GI50 (SK-MEL-2): > 100 µM (inactive) and > 80.5 µM (inactive)
GI50 (T47D): > 71.4 µM (inactive)
GI50 (NCI-H23): > 100 µM (inactive)
GI50 (UACC-62): > 100 µM (inactive)
GI50 (HT-29): > 100 µM (inactive) and 72.8 µM (inactive)
GI50 (K562): > 100 µM (inactive)
GI50 (COLO 205): > 100 µM (inactive) and > 68.7 µM (inactive)
GI50 (OVCAR-8): > 100 µM (inactive)
GI50 (OVCAR-5): > 66.2 µM (inactive)
GI50 (MCF7): > 100 µM (inactive) and > 72.9 µM (inactive)
GI50 (RXF 393): > 100 µM (inactive)
GI50 (HCT-116): > 100 µM (inactive)
GI50 (TK-10): > 100 µM (inactive)
GI50 (SF-295): > 100 µM (inactive)
GI50 (MDA-N): > 100 µM (inactive) and > 92 µM (inactive)
GI50 (Malme-3M): > 68.1 µM (inactive)
GI50 (NCI-H226): > 100 µM (inactive)
GI50 (HCC 2998): > 100 µM (inactive)
GI50 (UO-31): 54.2 µM (inactive)
GI50 (SN12C): > 100 µM (inactive)
GI50 (IGROV-1): 67.1 µM (inactive)
GI50 (A498): > 100 µM (inactive)
GI50 (MDA-MB-231): > 100 µM (inactive)

COc1cc(O)c2c(=O)cc(-c3ccc(O)cc3O)oc2c1CC=C(C)C [ARTOCARPETIN A]
GI50 (Hs-578T): 28.4 µM (inactive)
GI50 (SR): 4.5 µM (inactive)
GI50 (LOX IMVI): 11.9 µM (inactive)
GI50 (NCI-H522): 16 µM (inactive)
GI50 (SNB-75): 20.7 µM (inactive)
GI50 (KM12): 6.12 µM (inactive)
GI50 (CCRF-CEM): 15.4 µM (inactive)
GI50 (HCT-15): 11.6 µM
GI50 (RPMI-8226): 20.3 µM (inactive)
GI50 (OVCAR-4): 13.1 µM (inactive)
GI50 (SF-268): 17.4 µM (inactive)
GI50 (UACC-257): 28.4 µM (inactive)
GI50 (M14): 13.8 µM (inactive)
GI50 (SF-539): 18.1 µM (inactive)
GI50 (SNB-19): 18.3 µM (inactive)
GI50 (HOP-92): 19.6 µM (inactive)
GI50 (EKVX): 26.1 µM (inactive)
GI50 (SW-620): 24.3 µM (inactive)
GI50 (DU-145): 30.2 µM (inactive)
GI50 (SK-MEL-5): 18.3 µM (inactive)
GI50 (NCI/ADR-RES): 27 µM (inactive)
GI50 (MOLT-4): 8.93 µM (inactive)
GI50 (MDA-MB-435): 18.7 µM (inactive)
GI50 (SK-MEL-2): 17.2 µM (inactive)
GI50 (U-251): 17.1 µM (inactive)
GI50 (NCI-H23): 17.6 µM (inactive)
GI50 (UACC-62): 20 µM (inactive)
GI50 (HT-29): 4.35 µM (inactive)
GI50 (K562): 17 µM (inactive)
GI50 (PC-3): 12.9 µM (inactive)
GI50 (COLO 205): 9.25 µM (inactive)
GI50 (OVCAR-8): 16.9 µM (inactive)
GI50 (OVCAR-5): > 100 µM (inactive)
GI50 (MCF7): 20.3 µM (inactive)
GI50 (RXF 393): 6.3 µM (inactive)
GI50 (HCT-116): 18.1 µM (inactive)
GI50 (TK-10): 27.7 µM (inactive)
GI50 (SF-295): 12.9 µM (inactive)
GI50 (HL-60): 10.4 µM (inactive)
GI50 (786-0): 26.6 µM (inactive)
GI50 (MDA-N): 19.3 µM (inactive)
GI50 (Malme-3M): 16.3 µM (inactive)
GI50 (NCI-H226): 12.2 µM (inactive)
GI50 (SK-MEL-28): 29.1 µM (inactive)
GI50 (ACHN): 16.3 µM (inactive)
GI50 (CAKI-1): 17.1 µM (inactive)
GI50 (UO-31): 17.9 µM (inactive)
GI50 (SN12C): 16.4 µM (inactive)
GI50 (A549): 14.2 µM (inactive)
GI50 (NCI-H460): 14.3 µM (inactive)
GI50 (IGROV-1): 20.3 µM (inactive)
GI50 (A498): 22.1 µM (inactive)
GI50 (MDA-MB-231): 22.1 µM (inactive)

Source: ChEMBL document CHEMBL1201862, “PubChem BioAssay data set” (2004)
